The results in this text go back to US9035133B2, “Herbicide-resistant sunflower plants and methods of use” (priority 2006, dated 2015).

Common to all, as to type: in vivo, Helianthus annuus
One assay has as its system MUT31 sunflower plants. Put plainly: Greenhouse factorial experiment, herbicide damage score (imazamox with or without malathion). The settings on record: 7 days after spraying. The procedure:
(§1) FIG. 1 is a graphical representation of the results of a 2×3×2 factorial experiment to the test the effects of sunflower genotype (RHA266 or MUT31), herbicide dose (0, 0.25X, and, 0.50X; where X=50 g a.i./ha imazamox), and malathion (0 or 1000 g a.i./ha). The sunflower plants were at the 3-4 leaf growth stage at time of malathion and herbicide spraying. Malathion was sprayed on the plants 30 minutes prior to the imazamox spraying. The sunflower plants were evaluated at 7 days after herbicide spraying to determine damage scores. Additional details are provided below in Example 3.
(§2) To evaluate the detoxification ability of MUT31 sunflower plants, an experiment was conducted in the greenhouse. The objective of the experiment was to determine if the imazamox tolerance of MUT31 plants is associated with detoxification mechanism that is mediated by a P450 monooxygenase enzyme (referred to herein as “P450 enzyme”). […] Thus, plants comprising enhanced herbicide tolerance that is due to an altered P450 enzyme are expected to become less tolerant or susceptible to the herbicide when malthion is applied to the plants before they are treated with the herbicide.
(§3) A factorial experiment with three factors: genotypes (MUT31 and RHA266), herbicide dose (Control, 0.25X , and 0.50X; where X=50 g ai/ha imazamox) and malathion (with or without malathion) was arranged in a randomized split-split plot block design. Imazamox (SWEEPER) was sprayed at the 3-4 leaf growth stage. The P450 inhibitor malathion was sprayed at a rate of 1000 g ai/ha 30 minutes prior to herbicide spraying.

The test system of a further assay is RHA266 sunflower plants. Described as above. The settings on record: 7 days after spraying. On the procedure:
as §1, §2, §3

Assay [1] has as its system sunflower Entry 1, IMI Restorer, A205V homo. Description: Field trial, phytotoxicity rating (% crop injury). The settings on record: 21 DAT. The procedure:
(§4) A field trial was conducted to compare the herbicide tolerance of sunflower hybrids carrying the MUT31 trait and the A205V mutation in a sunflower AHASL gene (A205V/A205V). A sunflower AHASL gene with the A205V mutation encodes a AHASL protein which has a valine at amino acid that corresponds to amino acid position 205 in the Arabidopsis thaliana AHASL protein. The amino acid at the same position in a wild-type sunflower AHASL protein is alanine. In the amino acid sequence of the sunflower AHASL protein, this alanine-to-valine amino acid substitution is at amino acid position 190. By convention, the sites of amino acid substitutions that are known to give rise to herbicide resistance in plant AHASL proteins are typically referred to by the position of the substitution in the amino acid sequence of the Arabidopsis AHASL protein.
(§5) Seed from each entry was produced under optimum seed production conditions in South America in 2005/2006. The field trial was conducted at one location in North Dakota, USA in 2006. The entries were organized in a randomized complete block using a split plot design consisting of 3 replications for each treatment combination. Factor A was the herbicide treatment, and factor B was the sunflower entry. The plot size was 4 rows×12 ft and the seeding rate was consistent with local agronomic practices. The spray volume was 10 gallons per acre (GPA) (or 100 liters/ha) for a backpack sprayer or 20 GPA (or 200 liters/ha) for a tractor mounted boom. The herbicide treatments were applied at the 2-4 leaf growth stage.
(§6) Phytotoxicity ratings were assessed at 7 days and 21 days following herbicide application. Phytotoxicity was recorded as the amount of plant damage (in percent), where a rating of ‘0’ indicated no damage to the plants in the plot relative to the untreated plot. A rating of ‘100’ indicated complete necrosis (death) of the plants in the plot relative to the untreated plot.
(§7) The data was subjected to an ANOVA analysis and the means from the 3 repetitions are presented in Table 8 (phytotoxicity at 21 days post-treatment).

The subject of assay [2] is sunflower Entry 2, IMI cms × IMI restorer, A205V homo. Description: Field trial, phytotoxicity rating (% crop injury). Conditions: 21 DAT. The procedure:
as §4, §5, §6, §7

For assay [3], the system named is sunflower Entry 3, WT × IMI restorer, A205V hetero. Put plainly: Field trial, phytotoxicity rating (% crop injury). The settings on record: 50 g ai/ha imazamox + 0.25% (v/v) NIS, 21 DAT. The procedure:
as §4, §5, §6, §7

The test system of assay [4] is sunflower Entry 5, A837 cms × IMI restorer, A205V hetero. Put plainly: Field trial, phytotoxicity rating (% crop injury). Conditions: 50 g ai/ha imazamox + 0.25% (v/v) NIS, 21 DAT. On the procedure: as §4, §5, §6, §7
Assay [5] relates to sunflower Entry 6, IMI cms × MUT31 restorer, A205V/MUT31 hetero. Put plainly: Field trial, phytotoxicity rating (% crop injury). Conditions: 21 DAT. The procedure:
as §4, §5, §6, §7

In assay [6] the test system is sunflower Entry 8, MUT31 Restorer, MUT31 homo. Description: Field trial, phytotoxicity rating (% crop injury). Conditions: 21 DAT. On the procedure: as §4, §5, §6, §7
Another assay concerns MUT31. Description: Previous studies (data not shown), crop injury.
The mark [7] stands for this setting: 0.25× imazamox (X=50 g ai/ha), malathion 1000 g ai/ha 30 minutes prior.
[8] abbreviates: 0.25× imazamox (X=50 g ai/ha), no malathion.
Setting [9] is: 0.50× imazamox (X=50 g ai/ha), malathion 1000 g ai/ha 30 minutes prior.
Setting [10] is: 0.50× imazamox (X=50 g ai/ha), no malathion.
The mark [11] stands for this setting: 100 g ai/ha imazamox + 0.25% (v/v) NIS.
[12] abbreviates: 160 g ai/ha imazapyr + 0.25% (v/v) NIS.
Setting [13] is: herbicide dose 0× (control), malathion 1000 g ai/ha alone.
Setting [14] is: herbicide dose 0× (control), malathion 1000 g ai/ha alone, listed as Malathion.

Turning to `COCc1cnc(C2=NC(C)(C(C)C)C(=O)N2)c(C(=O)O)c1` (stereo not drawn) [imazamox], the “Mean Herbicide Damage Score” value with MUT31 sunflower plants (setting [7]) is 30.35%; in the assay with MUT31 sunflower plants (setting [8]), 9.50%; in the assay on MUT31 sunflower plants (setting [9]), 40.31%; in the assay with MUT31 sunflower plants (setting [10]) it was 20.13%; in the assay on RHA266 sunflower plants (setting [7]), 45.30%; in the assay with RHA266 sunflower plants (setting [8]), 27.95%. Moreover, the “Mean Herbicide Damage Score” value amounted to 45.50% with RHA266 sunflower plants (setting [9]) and 42.35% in the assay on RHA266 sunflower plants (setting [10]). Besides, the “Phytotoxicity Rating (% Crop Injury)” value in assay [1] (setting [11]) was 6.67%; in [2] (setting [11]), 3.33%; in assay [3] it was 6.67%; in assay [4], 3.33%; in assay [5] (50 g ai/ha imazamox + 0.25% (v/v) NIS), 1.67%; in [5] (200 g ai/ha imazamox + 0.25% (v/v) NIS) it was 43%. Also, the “Phytotoxicity Rating (% Crop Injury)” value in [6] (37.5 g ai/ha imazamox + 0.25% (v/v) NIS) was determined as 47%. This compound also returned a crop injury with MUT31 (75 g ai of imazamox per hectare) of 100%.

With `CC(C)C1(C)N=C(c2ncccc2C(=O)O)NC1=O` (stereo not drawn) [imazapyr], the entries for the “Phytotoxicity Rating (% Crop Injury)” value in assay [1] (setting [12]), in assay [2] (setting [12]) and in [6] (80 g ai/ha imazapyr + 0.25% (v/v) NIS) were 6.67%, 3.33% and 88.33%, respectively. For the same compound, the crop injury with MUT31 (100 g ai of imazapyr per hectare) amounted to 100%.

Turning to `CCOC(=O)CC(SP(=S)(OC)OC)C(=O)OCC` (stereo not drawn) [malathion, diethyl-dimethoxythiophosphorylthio-succinate], the “Mean Herbicide Damage Score” value is recorded as “no effect” with MUT31 sunflower plants (setting [13]), 0.00% in the assay with MUT31 sunflower plants (setting [14]), “no effect” in the assay on RHA266 sunflower plants (setting [13]) and 0.00% with RHA266 sunflower plants (setting [14]).
